Active and inactive are the calls of the source. The rule behind the calls is not given here.
Tested on: S. cerevisiae tim10-1 mutant yeast, luminescence growth read-out
Assay: tim10-1 mutant strain growth inhibitors – luminescence, S. cerevisiae, counter-screen for tim23-1 inhibitor project, SAR follow-up (AID 602378)

Structure (SMILES) | IC50
N#C/C(=C\c1ccc(Cl)cc1)C(=O)Nc1cccnc1 | 25.6 µM
Oc1ccc(Oc2ccc(Oc3ccc(O)cc3)cc2)cc1 | 25.6 µM
C=C1CCc2c([nH]c3ccc(OCC(C)C)cc23)C1=O | > 99 µM (inactive)
Cc1ccc2nc(CS(=O)(=O)c3ncccc3Cl)cc(=O)n2c1 | > 99 µM (inactive)
COc1cc2c(cc1OC)/C(=C/c1ccc(Cl)cc1)C(=O)OC2 | 10.8 µM
CC(=O)c1ccc(NS(=O)(=O)c2c(C)nc3scc(C)n3c2=O)cc1 | > 99 µM (inactive)
Cc1nc2scc(C)n2c(=O)c1S(=O)(=O)Nc1cc(C(F)(F)F)ccc1Cl | > 99 µM (inactive)
Cc1ccc(Nc2nc(-c3cccnc3)nc3ccccc23)cc1 | 14.1 µM
Cc1nc2scc(C)n2c(=O)c1S(=O)(=O)Nc1cccc(O)c1 | > 99 µM (inactive)
Cc1ccc(/C(N)=N/OC(=O)c2ccccc2)cc1F | 1.12 µM
CCOc1ccc(NS(=O)(=O)c2c(C)nc3scc(C)n3c2=O)cc1 | > 99 µM (inactive)
O=C1OC(c2ccccc2)=N/C1=C\C=C\c1ccco1 | 3.62 µM
CC(C)Cn1cnc2c(c(-c3ccccc3)c(-c3ccccc3)n2Cc2ccco2)c1=N | 16.8 µM
N#Cc1c(-c2ccccc2)cc(-c2ccc(O)cc2)nc1N | 10.3 µM
CC(C)(C)c1csc(NC(=O)c2ccc(Cl)s2)n1 | 54.7 µM
N/C(Cc1cccc2ccccc12)=N\OC(=O)COc1ccc(Cl)cc1Cl | 27.9 µM
NC(=O)C1CCN(c2nc(-c3cccnc3)nc3ccccc23)CC1 | > 99 µM (inactive)
COc1ccc(/C=C/C(=O)Nc2ccc3c(c2)CCC3)cc1OC | 17.5 µM
Cc1nc2scc(C)n2c(=O)c1S(=O)(=O)Nc1ccc(N2CCN(C(=O)C(C)C)CC2)cc1 | > 99 µM (inactive)
Cc1nn(Cc2cccc(C(=O)O/N=C(\N)c3ccc(Cl)cc3)c2)c(C)c1Br | 1.51 µM

Structure (SMILES) | IC50
Cc1nc2scc(C)n2c(=O)c1S(=O)(=O)Nc1ccc(Oc2ccc(Cl)cc2)cc1 | > 99 µM (inactive)
O=C(Nc1nc2ccccc2s1)C1CCCN1S(=O)(=O)c1ccc(Cl)cc1 (stereo not given) | 13.1 µM
Cc1ccc(-c2nc3ccc(NC(=O)c4cccs4)cc3[nH]2)o1 | 16.4 µM
Nc1cccc(Oc2ccc(Oc3cccc(N)c3)cc2)c1 | > 99 µM (inactive)
Cc1ccc(-c2nn(-c3ccccc3)cc2NC(=O)CCl)cc1 | 1.88 µM
O=C(CSCc1ccccc1)Nc1cc(S(=O)(=O)N2CCOCC2)ccc1Oc1ccccc1 | > 99 µM (inactive)
N/C(=N\OC(=O)c1ccc(Cl)cc1)c1cccc(CS(=O)(=O)c2ccccn2)c1 | 14 µM
Cc1ccc2nc(CSc3ccc(S(=O)(=O)N4CCCC4)cn3)cc(=O)n2c1 | > 99 µM (inactive)
CCOc1ccc2nc(N3C(=O)CNC3=S)sc2c1 | > 99 µM (inactive)
Cc1cc(OCC(=O)O/N=C(\N)Cc2ccc(Cl)cc2)ccc1Br | 3.28 µM
Cc1nc2scc(C)n2c(=O)c1S(=O)(=O)Nc1ccc(N2CCN(S(C)(=O)=O)CC2)cc1 | > 99 µM (inactive)
Cc1nc2scc(C)n2c(=O)c1S(=O)(=O)Nc1ccc(N2CCOCC2)c(Cl)c1 | > 99 µM (inactive)
O=C(Nc1ccn[nH]1)c1cccc(OCc2cccnc2)c1 | > 99 µM (inactive)
N/C(=N\OC(=O)c1cccc2ccccc12)c1ccc(Cl)cc1 | 1.03 µM
CCOc1cc2ccccc2cc1C(=O)O/N=C(\N)c1ccc(Cl)cc1 | 1.61 µM
O=C(Nc1ccc(-c2cn3ccccc3n2)cc1)c1cccs1 | > 99 µM (inactive)
Cc1ccc(OCC(=O)O/N=C(\N)Cc2ccc(Cl)cc2)cc1 | 2.57 µM
O=c1cc(CSc2ccc(S(=O)(=O)N3CCOCC3)cn2)nc2ccc(Br)cn12 | 77.4 µM
Cc1nc2scc(C)n2c(=O)c1S(=O)(=O)Nc1ccc(OC(F)(F)F)cc1 | 26.5 µM
O=C(CSc1cccc[n+]1[O-])Nc1ccccc1Oc1ccccc1 | 0.949 µM

Structure (SMILES) | IC50
Cc1nc2scc(C)n2c(=O)c1S(=O)(=O)Nc1ccc(N2CCOCC2)cc1 | > 99 µM (inactive)
Cc1csc(NC(=O)c2sc3nc4c(cc3c2N)CN(C)CC4)n1 | > 99 µM (inactive)
CCCCOc1ccc(C(=O)O/N=C(\N)c2cccc(Br)c2)cc1 | 1.09 µM
CC1(C)C=Cc2cc(/C(N)=N/OC(=O)c3ccccc3)ccc2O1 | 0.66 µM
CCCN(C(=O)c1ccc([N+](=O)[O-])c(C)c1)c1c(N)n(Cc2ccccc2)c(=O)[nH]c1=O | 1.08 µM
O=c1cc(CSc2ccc(S(=O)(=O)N3CCCCC3)cn2)nc2ccc(Br)cn12 | > 99 µM (inactive)
CCN(C(=O)c1cccc2ncccc12)c1c(N)n(Cc2ccccc2)c(=O)[nH]c1=O | > 99 µM (inactive)
N/C(=N\OC(=O)c1ccc2ccccc2c1)c1ccc(I)cc1 | > 99 µM (inactive)
Cc1noc(C)c1S(=O)(=O)Nc1ccc(-c2cn3c(n2)SCC3)cc1 | > 99 µM (inactive)
Cc1c2c(n(Cc3ccco3)c1C)N=CN1CCS(=O)(=O)N=C21 | > 99 µM (inactive)
CN1CCc2nc3sc(C(=O)C45CC6CC(CC(C6)C4)C5)c(N)c3cc2C1 | 69.3 µM
Cc1nc2scc(C)n2c(=O)c1S(=O)(=O)Nc1ccccc1 | 66.9 µM
N/C(=N\OC(=O)c1ccc(Cl)cc1)c1ccc(Cl)cc1 | 1.1 µM
N/C(=N\OC(=O)c1ccccc1)c1ccc(F)cc1F | 6.71 µM
Cc1ccc2nc(N3C(=O)CNC3=S)sc2c1 | 13 µM
O=C(Nc1ccc2nc(-c3ccc(Br)o3)[nH]c2c1)c1cccs1 | 24.6 µM
CS(=O)(=O)Nc1ccc(/C(N)=N/OC(=O)c2ccccc2Cl)cc1 | > 99 µM (inactive)
CC(=O)c1ccc2[nH]c3c(c2c1)CCCC3=O | > 99 µM (inactive)
COc1ccc(Cl)cc1NS(=O)(=O)c1c(C)nc2scc(C)n2c1=O | > 99 µM (inactive)
O=C(N/N=C/C(Cl)=C\c1ccccc1)c1cccs1 | 42.7 µM

Reference: PubChem BioAssay AID602378 (Sanford-Burnham Center for Chemical Genomics, 2012)
